This note sets out measurements from PubChem BioAssay (NCI).

Molecules are shown by their SMILES. Where “and” joins values, the source holds several entries; their conditions need not be identical. Equal values may be shown once.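 Briefly, cells in 96-well plates were exposed to five compound concentrations for 48 h, and endpoints were estimated by linear interpolation. GI50: concentration for 50% inhibition of growth. At the TGI there is no net growth.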 Where only a bound is given, the exact number is not on record here.

Among the test systems are CAKI-1 renal; U251 CNS; SN12C renal; SK-MEL-2 melanoma; K-562 leukemia; COLO 205 colon; CCRF-CEM leukemia; OVCAR-8 ovarian; HT29 colon; SK-MEL-5 melanoma; MALME-3M melanoma; RPMI-8226 leukemia; A549 NSCLC; UACC-257 melanoma; MDA-MB-231 breast.
Holding throughout (assay): NCI-60 cell line screen, 48 h

Regarding `CCOC(=O)C(C(=O)OCC)=C1NC2(c3ccccc3Nc3ccccc32)C(C#N)S1` (centres undefined), the TGI amounted to 53.7 µM with CAKI-1 renal; 24.5 µM in the experiment on U251 CNS; 18.9 µM in the experiment with SN12C renal; 25.5 µM in the experiment with SK-MEL-2 melanoma; 28.4 µM in the experiment with K-562 leukemia; 19.4 µM in the experiment on COLO 205 colon. Further, the TGI in the experiment on CCRF-CEM leukemia is greater than 100 µM; in the experiment with OVCAR-8 ovarian, 30 µM; with HT29 colon it was 17.8 µM; in the experiment with SK-MEL-5 melanoma it was 21.6 µM; in the experiment on MALME-3M melanoma, 29 µM; in the experiment on RPMI-8226 leukemia, 7.07 µM. In addition, the figures for the TGI in the experiment on A549 NSCLC and in the experiment with UACC-257 melanoma were 20.9 µM and 36 µM, respectively.

For `[O-]c1c2cc(-[n+]3c(-c4ccccc4)cc(-c4ccccc4)cc3-c3ccccc3)cc1COCCOCCOCCOCCOC2`, the TGI is greater than 100 µM in the experiment with CAKI-1 renal; greater than 100 µM in the experiment on U251 CNS; greater than 100 µM in the experiment with SN12C renal; 44 µM in the experiment on SK-MEL-2 melanoma; greater than 100 µM in the experiment on K-562 leukemia; 33.5 µM in the experiment with COLO 205 colon. In addition, the TGI in the experiment with CCRF-CEM leukemia is greater than 100 µM; in the experiment with OVCAR-8 ovarian, greater than 100 µM; with HT29 colon, greater than 100 µM; in the experiment on MALME-3M melanoma it was 98.3 µM; with A549 NSCLC, greater than 100 µM; in the experiment on UACC-257 melanoma, 82.5 µM.

Consider `O=[N+]([O-])c1cccc2nc3ccccc3c(NCCCNc3c4ccccc4nc4cccc([N+](=O)[O-])c34)c12`, for which the TGI in the experiment on MDA-MB-231 breast is 0.0311 µM; with CAKI-1 renal it was 0.118 µM; in the experiment on U251 CNS, 0.181 µM; in the experiment with SN12C renal it was 0.0976 µM; with SK-MEL-2 melanoma, 0.13 µM; in the experiment on COLO 205 colon, less than 0.01 µM. Also, the TGI was 0.162 µM in the experiment on CCRF-CEM leukemia; 0.131 µM in the experiment with OVCAR-8 ovarian; less than 0.01 µM in the experiment on HT29 colon; 0.0221 µM in the experiment with SK-MEL-5 melanoma; 0.329 µM in the experiment with MALME-3M melanoma; 0.166 µM with A549 NSCLC. Moreover, the TGI with UACC-257 melanoma is 0.329 µM.

Take `C/C(=C\CBr)CCC(Br)C(C)(C)Cl` (centres undefined): the TGI with CAKI-1 renal, in the experiment on U251 CNS, with SN12C renal, with SK-MEL-2 melanoma, in the experiment with K-562 leukemia and in the experiment on COLO 205 colon was greater than 100 µM throughout. The TGI in the experiment on OVCAR-8 ovarian, in the experiment on HT29 colon, in the experiment with SK-MEL-5 melanoma, in the experiment with MALME-3M melanoma, in the experiment with RPMI-8226 leukemia and in the experiment on A549 NSCLC was greater than 100 µM in each case. In the experiment with UACC-257 melanoma, this compound came in with a TGI greater than 100 µM.

Consider `N[C@H](C(=O)O)[C@@H]1CC(Br)=NO1`, for which the TGI in the experiment on MDA-MB-231 breast, in the experiment on CAKI-1 renal, in the experiment on U251 CNS, in the experiment with SN12C renal, in the experiment on SK-MEL-2 melanoma and with K-562 leukemia was greater than 100 µM each time. For the same compound, the TGI in the experiment with COLO 205 colon, in the experiment with CCRF-CEM leukemia, in the experiment with OVCAR-8 ovarian, in the experiment on HT29 colon, in the experiment with SK-MEL-5 melanoma and in the experiment with MALME-3M melanoma was greater than 100 µM throughout. Also, the TGI with A549 NSCLC and in the experiment on UACC-257 melanoma was greater than 100 µM in each case.

In the case of `CCOC(=O)C1(F)S(=O)(=O)OCCOS1(=O)=O`, the TGI in the experiment with CAKI-1 renal, in the experiment with U251 CNS, in the experiment with SN12C renal, in the experiment with SK-MEL-2 melanoma, with COLO 205 colon and in the experiment on OVCAR-8 ovarian was greater than 100 µM throughout. Further, the TGI in the experiment with HT29 colon, in the experiment on SK-MEL-5 melanoma, in the experiment with MALME-3M melanoma, with RPMI-8226 leukemia, in the experiment on A549 NSCLC and in the experiment with UACC-257 melanoma was greater than 100 µM each time.

With `Oc1ccc2cc(Br)ccc2c1-c1c(O)ccc2ccc(Br)cc12`, the TGI was 21.6 µM in the experiment on MDA-MB-231 breast; 34 µM in the experiment on CAKI-1 renal; 28 µM with U251 CNS; 24.3 µM in the experiment with SN12C renal; 31.4 µM in the experiment with SK-MEL-2 melanoma; 35.8 µM in the experiment on K-562 leukemia. The TGI amounted to 26.5 µM in the experiment with COLO 205 colon; 28.3 µM in the experiment on CCRF-CEM leukemia; 30.4 µM with OVCAR-8 ovarian; 10.1 µM in the experiment with HT29 colon; 37.5 µM with SK-MEL-5 melanoma; 26.6 µM in the experiment on MALME-3M melanoma. Also, the TGI is 30.4 µM with A549 NSCLC and 33.9 µM in the experiment on UACC-257 melanoma.

Take `COc1c(=O)cc2cc[nH]c3ccn(C)c1c23`: the TGI in the experiment with MDA-MB-231 breast, in the experiment with CAKI-1 renal, with U251 CNS, in the experiment with SN12C renal, in the experiment on SK-MEL-2 melanoma and in the experiment on K-562 leukemia was greater than 100 µM each time. For the same compound, the TGI in the experiment on COLO 205 colon, with OVCAR-8 ovarian, in the experiment with RPMI-8226 leukemia, with A549 NSCLC and in the experiment on UACC-257 melanoma was greater than 100 µM each time.

Take `O=c1[nH]c(=S)nc2nc3c4ccc[nH]c4c4ccccc4c3nc12`: the TGI in the experiment on CAKI-1 renal, in the experiment on U251 CNS, in the experiment on SN12C renal, in the experiment on COLO 205 colon, in the experiment on CCRF-CEM leukemia and with OVCAR-8 ovarian was greater than 100 µM each time. For the same compound, the TGI with HT29 colon, with SK-MEL-5 melanoma, with MALME-3M melanoma, with RPMI-8226 leukemia, with A549 NSCLC and with UACC-257 melanoma was greater than 100 µM throughout.

As for `O=[N+]([O-])c1ccc(OC2CC3C4C=CC3C2C4)c([N+](=O)[O-])c1` (centres undefined), the GI50 in the experiment on MDA-MB-231 breast was 11.3 µM and > 31.6 µM; in the experiment on SN12C renal, 86.4 µM and > 31.6 µM; in the experiment with SK-MEL-2 melanoma it was 90.4 µM and > 31.6 µM; with CCRF-CEM leukemia, > 100 µM and 24 µM; in the experiment on HT29 colon, > 100 µM and 30 µM. The TGI with MDA-MB-231 breast is 74 µM and > 31.6 µM; with CAKI-1 renal, greater than 100 µM; with U251 CNS, greater than 100 µM; with SN12C renal, greater than 100 µM; in the experiment with SK-MEL-2 melanoma, greater than 100 µM; in the experiment on K-562 leukemia it was greater than 100 µM. For the same compound, the TGI with COLO 205 colon, with CCRF-CEM leukemia, in the experiment with OVCAR-8 ovarian, in the experiment on HT29 colon, in the experiment with SK-MEL-5 melanoma and with MALME-3M melanoma was greater than 100 µM throughout. The TGI with A549 NSCLC and in the experiment with UACC-257 melanoma was greater than 100 µM throughout.
